Experimental data published in patent publication US12209102B2, “Heterocyclic compounds and uses thereof” (Kumquat Biosciences Inc., priority 2022, dated 2025).

Columns and labels:
GP2D cells = experiment: Ras cellular assay, growth of cells with K-Ras G12D mutation (CellTiter-Glo); assay type: cell-based; settings: cell growth, Example 9, G12D mutation, read-out: IC50 against GP2D cells
SW620 cells = experiment: Ras cellular assay, growth of cells with K-Ras G12V mutation (CellTiter-Glo); assay type: cell-based; settings: Homo sapiens, SW-620; cell growth, Example 9, G12V mutation; read-out: IC50 against SW620 cells
Procedure, shortened: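 IC50 values came from a four-parameter fit of CellTiter-Glo viability, read roughly 6 days after dosing with e.g. a 10-point threefold dilution series. G12V-mutant SW620 cells (e.g. 800 per well) had been plated the previous day in RPMI-1640/10% heat-inactivated FBS, on tissue culture-treated or ultra-low attachment plates.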

K-Ras G12V = molecular target: T1, K-Ras G12V (Homo sapiens, UniProt P01116, G12V); experiment: HTRF resonance energy transfer assay, K-Ras G12V / SOS1 interaction; assay type: biochemical; settings: HTRF assay of Example 5; read-out: IC50 against K-Ras G12V
T1 construct: made in house; host or cells: E. coli BL21 (DE3)
T1 sequence (P01116 1-188 isoform P01116-2 G12V): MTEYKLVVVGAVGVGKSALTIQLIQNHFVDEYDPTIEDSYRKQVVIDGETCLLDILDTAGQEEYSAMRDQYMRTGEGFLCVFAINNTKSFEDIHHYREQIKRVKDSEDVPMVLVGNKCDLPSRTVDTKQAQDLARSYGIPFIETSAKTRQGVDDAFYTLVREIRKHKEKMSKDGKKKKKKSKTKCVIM
Procedure, shortened: (§1)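 Buffer about 5 mM HEPES pH 7.4 with ~150 mM NaCl, ~1 mM DTT, 0.05% BSA, 0.0025% (v/v) Igepal. Protein constructs used at molarity matching the IC50 range studied (e.g. ~500 nM). FRET between tagged K-Ras and hSOS1 measured after short incubation.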

K-Ras G12D = molecular target: T2, K-Ras G12D (Homo sapiens, UniProt P01116, G12D); experiment: HTRF resonance energy transfer assay, K-Ras G12D / SOS1 interaction; assay type: biochemical; settings: HTRF assay of Example 5; read-out: IC50 against K-Ras G12D
T2 construct: made in house; host or cells: E. coli BL21 (DE3)
T2 sequence (P01116 1-188 isoform P01116-2 G12D): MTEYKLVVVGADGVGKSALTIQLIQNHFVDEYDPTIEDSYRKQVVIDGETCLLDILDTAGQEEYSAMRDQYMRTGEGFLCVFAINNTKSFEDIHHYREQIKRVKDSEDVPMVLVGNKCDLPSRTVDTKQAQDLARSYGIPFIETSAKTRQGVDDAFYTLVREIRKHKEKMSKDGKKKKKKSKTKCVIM
Procedure, shortened: as §1

K-Ras WT = molecular target: T3, K-Ras WT (Homo sapiens, UniProt P01116); experiment: HTRF resonance energy transfer assay, K-Ras WT / SOS1 interaction; assay type: biochemical; settings: HTRF assay of Example 5; read-out: IC50 against K-Ras WT
T3 construct: made in house; host or cells: E. coli BL21 (DE3)
T3 sequence (P01116 1-188 isoform P01116-2): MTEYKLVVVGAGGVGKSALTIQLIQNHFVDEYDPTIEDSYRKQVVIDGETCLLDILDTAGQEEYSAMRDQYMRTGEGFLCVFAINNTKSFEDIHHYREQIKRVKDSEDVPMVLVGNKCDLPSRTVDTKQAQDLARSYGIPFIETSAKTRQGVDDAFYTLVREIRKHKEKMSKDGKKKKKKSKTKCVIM
Procedure, shortened: as §1

K-Ras G12S = molecular target: T4, K-Ras G12S (Homo sapiens, UniProt P01116, G12S); experiment: HTRF resonance energy transfer assay, K-Ras G12S / SOS1 interaction; assay type: biochemical; settings: HTRF assay of Example 5; read-out: IC50 against K-Ras G12S
T4 construct: made in house; host or cells: E. coli BL21 (DE3)
T4 sequence (P01116 1-188 isoform P01116-2 G12S): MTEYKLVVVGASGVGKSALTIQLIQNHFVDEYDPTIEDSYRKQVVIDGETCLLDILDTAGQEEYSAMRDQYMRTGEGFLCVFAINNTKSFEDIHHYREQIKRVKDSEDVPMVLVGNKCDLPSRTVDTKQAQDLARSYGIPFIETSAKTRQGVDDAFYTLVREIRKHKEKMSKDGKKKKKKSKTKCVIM
Procedure, shortened: as §1

Question: C=C[C@H]1COc2c(Cl)c(-c3ccc(F)c4sc(N)c(C#N)c34)c(F)c3nc(OC[C@@]45CCCN4C[C@H](F)C5)nc(c23)N1CCC(F)F (single isomer, unassigned) [Compound 727] was tested. Which IC50 (GP2D cells) did it give?
Answer: The IC50 was < 0.5 µM.

Question: What about the IC50 (SW620 cells) of the same molecule?
Answer: The IC50 was < 5 µM.

Question: For N#Cc1c(N)sc2c(F)ccc(-c3c(Cl)c4c5c(nc(OC[C@@]67CCCN6C[C@H](F)C7)nc5c3F)N(C3CCOC3)[C@@H](C3(F)CC3)CO4)c12 (single isomer, unassigned) [Compound 772], which IC50 (K-Ras G12V) is on record?
Answer: The IC50 was < 0.1 µM.

Question: What about the IC50 (K-Ras G12D) of the same molecule?
Answer: The IC50 was < 0.1 µM.

Question: And the IC50 (GP2D cells)?
Answer: The IC50 was < 0.5 µM.

Question: And the IC50 (K-Ras WT)?
Answer: Its IC50 is < 0.1 µM.

Question: And the IC50 (SW620 cells)?
Answer: The IC50 was < 5 µM.

Question: What about the IC50 (K-Ras G12S) of the same molecule?
Answer: Its IC50 is < 0.1 µM.

Question: C=C[C@H]1COc2c(Cl)c(-c3ccc(F)c4sc(N)c(C#N)c34)c(F)c3nc(OC[C@@]45CCCN4C[C@H](F)C5)nc(c23)N1C1CCOC1 (single isomer, unassigned) [Compound 980] was tested. Which IC50 (K-Ras G12V) did it give?
Answer: Its IC50 is < 0.1 µM.

Question: And the IC50 (K-Ras G12D)?
Answer: Its IC50 is < 0.1 µM.

Question: What about the IC50 (GP2D cells) of the same molecule?
Answer: Its IC50 is < 0.5 µM.

Question: What about the IC50 (K-Ras WT) of the same molecule?
Answer: Its IC50 is < 0.1 µM.

Question: What about the IC50 (SW620 cells) of the same molecule?
Answer: Its IC50 is < 5 µM.

Question: And the IC50 (K-Ras G12S)?
Answer: Its IC50 is < 0.1 µM.

Question: For CN(C)C1(CN2CCOc3c(Cl)c(-c4ccc(F)c5sc(N)c(C#N)c45)c(F)c4nc(OC[C@@]56CCCN5C[C@H](F)C6)nc2c34)CCC1 [Compound 606, 2-amino-4-(8-chloro-4-((1-(dimethylamino)cyclobutyl)methyl)-10-fluoro-2-(((2R,7aS)-2-fluorotetrahydro-1H-pyrrolizin-7a(5H)-yl)methoxy)-5,6-dihydro-4H-[1,4]oxazepino[5,6,7-de]quinazolin-9-yl)-7-fluorobenzo[b]thiophene-3-carbonitrile], which IC50 (K-Ras G12V) is on record?
Answer: Its IC50 is < 0.1 µM.

Question: And the IC50 (K-Ras G12D)?
Answer: The IC50 was < 0.1 µM.

Question: What about the IC50 (GP2D cells) of the same molecule?
Answer: The IC50 was < 0.5 µM.

Question: And the IC50 (K-Ras WT)?
Answer: Its IC50 is < 0.1 µM.

Question: And the IC50 (SW620 cells)?
Answer: The IC50 was < 5 µM.

Question: What about the IC50 (K-Ras G12S) of the same molecule?
Answer: Its IC50 is < 0.1 µM.

Question: With COCCN1c2nc(OC[C@@]34CCCN3C[C@H](F)C4)nc3c(F)c(-c4ccc(F)c5sc(N)c(C#N)c45)c(Cl)c(c23)OC[C@@H]1CNC=O [Compound 607, N-(((5S)-9-(2-amino-3-cyano-7-fluorobenzo[b]thiophen-4-yl)-8-chloro-10-fluoro-2-(((2R,7aS)-2-fluorotetrahydro-1H-pyrrolizin-7a(5H)-yl)methoxy)-4-(2-methoxyethyl)-5,6-dihydro-4H-[1,4]oxazepino[5,6,7-de]quinazolin-5-yl)methyl)formamide] as the molecule, how does the IC50 (K-Ras G12V) read?
Answer: Its IC50 is < 0.1 µM.

Question: What about the IC50 (K-Ras G12D) of the same molecule?
Answer: The IC50 was < 0.1 µM.

Question: What about the IC50 (GP2D cells) of the same molecule?
Answer: The IC50 was < 0.5 µM.

Question: What about the IC50 (K-Ras WT) of the same molecule?
Answer: Its IC50 is < 0.1 µM.

Question: What about the IC50 (SW620 cells) of the same molecule?
Answer: Its IC50 is < 5 µM.

Question: What about the IC50 (K-Ras G12S) of the same molecule?
Answer: Its IC50 is < 0.1 µM.

Question: Which IC50 (K-Ras G12V) does the source give for N#Cc1c(N)sc2c(F)ccc(-c3c(Cl)c4c5c(nc(OC[C@@]67CCCN6C[C@H](F)C7)nc5c3F)N(CCC(F)F)[C@@H](CNC=O)CO4)c12 [Compound 614, N-(((5S)-9-(2-amino-3-cyano-7-fluorobenzo[b]thiophen-4-yl)-8-chloro-4-(3,3-difluoropropyl)-10-fluoro-2-(((2R,7aS)-2-fluorotetrahydro-1H-pyrrolizin-7a(5H)-yl)methoxy)-5,6-dihydro-4H-[1,4]oxazepino[5,6,7-de]quinazolin-5-yl)methyl)formamide] here?
Answer: Its IC50 is < 0.1 µM.

Question: And the IC50 (K-Ras G12D)?
Answer: The IC50 was < 0.1 µM.

Question: And the IC50 (GP2D cells)?
Answer: Its IC50 is < 0.5 µM.

Question: What about the IC50 (K-Ras WT) of the same molecule?
Answer: Its IC50 is < 0.1 µM.

Question: What about the IC50 (SW620 cells) of the same molecule?
Answer: The IC50 was < 5 µM.

Question: And the IC50 (K-Ras G12S)?
Answer: Its IC50 is < 0.1 µM.

Question: N#Cc1c(N)sc2c(F)ccc(-c3c(Cl)c4c5c(nc(OC[C@@]67CCCN6C[C@H](F)C7)nc5c3F)N[C@@H](C(F)F)CO4)c12 [Compound 618, 2-amino-4-((R)-8-chloro-5-(difluoromethyl)-10-fluoro-2-(((2R,7aS)-2-fluorotetrahydro-1H-pyrrolizin-7a(5H)-yl)methoxy)-5,6-dihydro-4H-[1,4]oxazepino[5,6,7-de]quinazolin-9-yl)-7-fluorobenzo[b]thiophene-3-carbonitrile] was tested. Which IC50 (K-Ras G12V) did it give?
Answer: Its IC50 is < 0.1 µM.

Question: And the IC50 (K-Ras G12D)?
Answer: Its IC50 is < 0.1 µM.

Question: What about the IC50 (GP2D cells) of the same molecule?
Answer: Its IC50 is < 0.5 µM.

Question: What about the IC50 (K-Ras WT) of the same molecule?
Answer: Its IC50 is < 0.1 µM.

Question: And the IC50 (SW620 cells)?
Answer: Its IC50 is < 5 µM.

Question: What about the IC50 (K-Ras G12S) of the same molecule?
Answer: The IC50 was < 0.1 µM.

Question: Which IC50 (GP2D cells) does the source give for C#C[C@H]1COc2c(Cl)c(-c3ccc(F)c4sc(N)c(C#N)c34)c(F)c3nc(OC[C@@]45CCCN4C[C@H](F)C5)nc(c23)N1CC(F)F [Compound 730, 2-amino-4-((5S)-8-chloro-4-(2,2-difluoroethyl)-5-ethynyl-10-fluoro-2-(((2R,7aS)-2-fluorotetrahydro-1H-pyrrolizin-7a(5H)-yl)methoxy)-5,6-dihydro-4H-[1,4]oxazepino[5,6,7-de]quinazolin-9-yl)-7-fluorobenzo[b]thiophene-3-carbonitrile] here?
Answer: Its IC50 is < 0.5 µM.

Question: And the IC50 (SW620 cells)?
Answer: Its IC50 is < 5 µM.

Question: With C=C(C)[C@H]1COc2c(Cl)c(-c3ccc(F)c4sc(N)c(C#N)c34)c(F)c3nc(OC[C@@]45CCCN4C[C@H](F)C5)nc(c23)N1CC(F)F [Compound 879, 2-amino-4-((5S)-8-chloro-4-(2,2-difluoroethyl)-10-fluoro-2-(((2R,7aS)-2-fluorotetrahydro-1H-pyrrolizin-7a(5H)-yl)methoxy)-5-(prop-1-en-2-yl)-5,6-dihydro-4H-[1,4]oxazepino[5,6,7-de]quinazolin-9-yl)-7-fluorobenzo[b]thiophene-3-carbonitrile] as the molecule, how does the IC50 (K-Ras G12V) read?
Answer: The IC50 was < 0.1 µM.

Question: And the IC50 (K-Ras G12D)?
Answer: The IC50 was < 0.1 µM.

Question: And the IC50 (GP2D cells)?
Answer: Its IC50 is < 0.5 µM.

Question: And the IC50 (K-Ras WT)?
Answer: The IC50 was < 0.1 µM.

Question: What about the IC50 (K-Ras G12S) of the same molecule?
Answer: The IC50 was < 0.1 µM.

Question: Which results are given for CNCCN1CCOc2c(Cl)c(-c3ccc(F)c4sc(N)c(C#N)c34)c(F)c3nc(OC[C@@]45CCCN4C[C@H](F)C5)nc1c23 [Compound 961, 2-amino-4-(8-chloro-10-fluoro-2-(((2R,7aS)-2-fluorotetrahydro-1H-pyrrolizin-7a(5H)-yl)methoxy)-4-(2-(methylamino)ethyl)-5,6-dihydro-4H-[1,4]oxazepino[5,6,7-de]quinazolin-9-yl)-7-fluorobenzo[b]thiophene-3-carbonitrile]?
Answer: IC50 (K-Ras G12V): < 0.1 µM; IC50 (K-Ras G12D): < 0.1 µM; IC50 (GP2D cells): < 0.5 µM; IC50 (K-Ras WT): < 0.1 µM; IC50 (K-Ras G12S): < 0.1 µM

Question: What does the source list for C[C@H]1COc2c(Cl)c(-c3ccc(F)c4sc(N)c(C#N)c34)c(F)c3nc(OC[C@@]45CCCN4C[C@H](F)C5)nc(c23)N1CC(F)F [Compound 1088, 2-amino-4-((5S)-8-chloro-4-(2,2-difluoroethyl)-10-fluoro-2-(((2R,7aS)-2-fluorotetrahydro-1H-pyrrolizin-7a(5H)-yl)methoxy)-5-methyl-5,6-dihydro-4H-[1,4]oxazepino[5,6,7-de]quinazolin-9-yl)-7-fluorobenzo[b]thiophene-3-carbonitrile]?
Answer: IC50 (K-Ras G12V): < 0.1 µM; IC50 (GP2D cells): < 0.5 µM; IC50 (K-Ras WT): < 0.1 µM; IC50 (SW620 cells): < 5 µM; IC50 (K-Ras G12S): < 0.1 µM

Question: How did the IC50 (GP2D cells) turn out when N#Cc1c(N)sc2c(F)ccc(-c3c(Cl)c4c5c(nc(OC[C@@]67CCCN6C[C@H](F)C7)nc5c3F)N(CC(F)F)[C@@H](C3CC3C#N)CO4)c12 (stereo partly drawn) [Compound 1109, 2-amino-4-((5S)-8-chloro-5-(2-cyanocyclopropyl)-4-(2,2-difluoroethyl)-10-fluoro-2-(((2R,7aS)-2-fluorotetrahydro-1H-pyrrolizin-7a(5H)-yl)methoxy)-5,6-dihydro-4H-[1,4]oxazepino[5,6,7-de]quinazolin-9-yl)-7-fluorobenzo[b]thiophene-3-carbonitrile] was run?
Answer: Its IC50 is < 0.5 µM.

Question: And the IC50 (SW620 cells)?
Answer: Its IC50 is < 5 µM.

Question: For N#Cc1c(N)sc2c(F)ccc(-c3c(Cl)c4c5c(nc(OC[C@@]67CCCN6C[C@H](F)C7)nc5c3F)N([C@@H]3CCNC3)CCO4)c12 [Compound 1124, 2-amino-4-(8-chloro-10-fluoro-2-(((2R,7aS)-2-fluorotetrahydro-1H-pyrrolizin-7a(5H)-yl)methoxy)-4-((R)-pyrrolidin-3-yl)-5,6-dihydro-4H-[1,4]oxazepino[5,6,7-de]quinazolin-9-yl)-7-fluorobenzo[b]thiophene-3-carbonitrile], which IC50 (K-Ras G12V) is on record?
Answer: The IC50 was < 0.1 µM.

Question: What about the IC50 (K-Ras G12D) of the same molecule?
Answer: The IC50 was < 0.1 µM.

Question: What about the IC50 (GP2D cells) of the same molecule?
Answer: The IC50 was < 0.5 µM.

Question: And the IC50 (K-Ras WT)?
Answer: The IC50 was < 0.1 µM.

Question: And the IC50 (K-Ras G12S)?
Answer: The IC50 was < 0.1 µM.
